Source: patent US6328992A, “Cannabinoid patch and method for cannabis transdermal delivery” (priority 2000, dated 2001)

Legend:
[1] = from patch of Example A; human cadaver epidermis, 37 degree Celsius, seven days
[2] = solubility of THC in aqueous and ionic solutions; format: physicochemical
Description: Furthermore, THC is insoluble with many solutions, including aqueous and ionically charged solutions. An application of an ionic aqueous solution to a porous material will hinder the diffusion rate of THC through the material and decrease flux of cannabis. Therefore, an appropriate combination of porous THC absorbing material, combined with a solution that is insoluble with THC, can form a suitable rate control means. An example of such a rate controlling membrane includes mixing salt water with a porous rubber membrane that covers the cavity. The thickness of the porous rubber membrane, the concentration of the salt water, and the amount of available cannabis in the cavity are optimized experimentally to create a desired flux of THC to the patient's skin. Evaporation of necessary fluids may be prevented by a protective backing layer.

[3] = prior experimentation; cited from earlier work

| SMILES | individual cannabinoid flux [1] | solubility with aqueous and ionically charged solutions [2] | diffusion through porous materials such as rubber and plastic [3] |
| --- | --- | --- | --- |
| C=C(C)[C@@H]1CCC(C)=C[C@H]1c1c(O)cc(CCCCC)cc1O [CBD, cannabidiol] | 5.25 micrograms per square centimeter per hour |  |  |
| CCCCCc1cc(O)c2c(c1)OC(C)(C)c1ccc(C)cc1-2 [CBN, cannabinol] | 4.8 micrograms per square centimeter per hour |  |  |
| CCCCCc1cc(O)c2c(c1)OC(C)(C)[C@@H]1CCC(C)=C[C@@H]21 [THC, tetrahydrocannabinol] |  | insoluble | diffuse rapidly |
| CCCCCc1cc(O)c2c(c1)OC(C)(C)C1CC=C(C)CC21 (stereo not drawn) [delta 8 THC] | 0.45 micrograms per square centimeter per hour |  |  |
| CCCCCc1cc(O)c2c(c1)OC(C)(C)C1CCC(C)=CC21 (stereo not drawn) [delta 9 THC] | 4.5 micrograms per square centimeter per hour |  |  |
